Assay in all cases: relative viability (nuclei count vs DMSO), 5 days (fraction); higher = more cells survive
Compound in the assay “BMX-IN-1 + Lapatinib”: C=CC(=O)Nc1cc(-n2c(=O)ccc3cnc4ccc(-c5ccc(NS(C)(=O)=O)cc5)cc4c32)ccc1C [BMX-IN-1] + CS(=O)(=O)CCNCc1ccc(-c2ccc3ncnc(Nc4ccc(OCc5cccc(F)c5)c(Cl)c4)c3c2)o1 [Lapatinib] (partner 2 µM)
The procedure, abridged: (§1)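 One day after seeding in 1536-well plates, lung cancer cell lines were dosed by pin tool. Dosing was either single-drug or a fixed anchor-drug dose plus five library-drug doses (not always all listed) in √10 steps. After 5 days, nuclei were stained in one fix-and-stain step and counted on 4× images, and relative viability is the nuclei count of treated wells over that of vehicle wells, given as the median of duplicate plates.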

Compound in the assay “PAC-1 + Lapatinib”: C=CCc1cccc(/C=N/NC(=O)CN2CCN(Cc3ccccc3)CC2)c1O [PAC-1] + CS(=O)(=O)CCNCc1ccc(-c2ccc3ncnc(Nc4ccc(OCc5cccc(F)c5)c(Cl)c4)c3c2)o1 [Lapatinib] (partner 2 µM)
The procedure, abridged: as §1

Compound in the assay “Ibrutinib + Lapatinib”: C=CC(=O)N1CCC[C@@H](n2nc(-c3ccc(Oc4ccccc4)cc3)c3c(N)ncnc32)C1 [Ibrutinib] + CS(=O)(=O)CCNCc1ccc(-c2ccc3ncnc(Nc4ccc(OCc5cccc(F)c5)c(Cl)c4)c3c2)o1 [Lapatinib] (partner 2 µM)
A digest of the protocol:
as §1

Compound in the assay “Ibrutinib + Vorinostat”: C=CC(=O)N1CCC[C@@H](n2nc(-c3ccc(Oc4ccccc4)cc3)c3c(N)ncnc32)C1 [Ibrutinib] + O=C(CCCCCCC(=O)Nc1ccccc1)NO [Vorinostat] (partner 1 µM)
The procedure, abridged:
as §1

The values below come from the supplement of paper PMC10307832.

As for SK-MES-1, the relative viability was found to be 0.473 with BMX-IN-1 + Lapatinib (first compound 0.02 µM); 0.466 with BMX-IN-1 + Lapatinib (first compound 0.2 µM); 0.489 with BMX-IN-1 + Lapatinib (first compound 0.6325 µM); 0.439 with BMX-IN-1 + Lapatinib (first compound 2 µM); 0.455 in the assay with PAC-1 + Lapatinib (first compound 0.02 µM); 0.457 with PAC-1 + Lapatinib (first compound 0.06325 µM). Also, the relative viability with PAC-1 + Lapatinib (first compound 0.2 µM) stood at 0.443; with PAC-1 + Lapatinib (first compound 2 µM) it was 0.445; with Ibrutinib + Lapatinib (first compound 0.005 µM), 0.506; in the assay with Ibrutinib + Lapatinib (first compound 0.01581 µM), 0.456; with Ibrutinib + Lapatinib (first compound 0.05 µM), 0.461; with Ibrutinib + Lapatinib (first compound 0.1581 µM) it was 0.446. The relative viability was 0.441 with Ibrutinib + Lapatinib (first compound 0.5 µM); 1.16 with Ibrutinib + Vorinostat (first compound 0.005 µM); 1.05 with Ibrutinib + Vorinostat (first compound 0.01581 µM); 1.07 with Ibrutinib + Vorinostat (first compound 0.05 µM); 1.26 with Ibrutinib + Vorinostat (first compound 0.1581 µM); 0.747 with Ibrutinib + Vorinostat (first compound 0.5 µM).
